Assay results from patent US20100173832A1, “ANTICANCEROUS POLYMERIC AGENTS” (TECHNION RESEARCH & DEVELOPMENT FOUNDATION LTD., priority 2007, published 2010).
Like-named read-outs stand apart in the source and are kept apart here. Non-standard residues stand in square brackets, D forms with d. Residues, ends and D or L forms follow the SMILES beside them. 12Ado = NCCCCCCCCCCCC(=O)O

Tests used:
in vitro = settings: human
Protocol: The polymer's toxic potential was determined against human red blood cells (RBC) by measuring leakage of hemoglobin therefrom in phosphate buffer solution (PBS). Human blood samples were rinsed three times in PBS by centrifugation for 2 minutes at 200×g, and re-suspended in PBS at 5% hematocrit. A 50 μl-fractions of a suspension containing […] RBC were added to test tubes containing 200 μl of polymer solutions (2-fold serial dilutions in PBS), PBS alone (for base-line values), or distilled water (for 100% hemolysis). […] Controls for base-line hemolysis (blank) and 100% hemolysis consisted of RBC suspended in PBS and TritonX100 (0.2%), respectively.

N-417 cell line = test: XTT cell viability assay, N-417 cells; assay type: cell-based
Description: Variant small cell lung cancer cells (N-417, SCLC);
(§1) As a routine cancer cell killing assay for assessment of antitumor activity, 2,3-bis(2-methoxy-4-nitro-5-sulfophenyl)-2H-tetrazolium-5-carboxanilide inner salt (XTT) reduction assay was used, utilizing a commercial kit such as, for example, Cell Proliferation XTT Kit, Cat. No. 20-300-1000, Biological Industries Ltd., Kibbutz Beit Haemek, Israel. XTT is a tetrazolium salt which is cleaved to formazan colored compounds by the mitochondrial dehydrogenase enzymes indicating proper mitochondrial activity in intact cells.
(§2) Thereafter, a series of increasing concentrations of the polymers were added. After another 24 hours of incubation, XTT reaction solution was added (50 μl of XTT per 100 μl of cell culture medium). The optical density of the cells was measured at 450 nm by ELISA plate reader after 2-4 hours XTT incubation. Cell viability was determined relative to a control having no polymer added thereto.
“Human breast cancer MCF-7” represents the lethal concentration in μM as measured against MCF-7 cell line, measured as described hereinabove in the cell proliferation XTT assay (column 6 in Table 3); “Human small-cell lung carcinoma N-417” represents the lethal concentration in μM as measured against N-417 cell line, measured as described hereinabove in the cell proliferation XTT assay (column 7 in Table 3);

MCF-7 cell line = assay type: cell-based
Protocol: Human breast adenocarcinoma cells (MCF-7);
Thereafter, a series of increasing concentrations of the polymers were added. […] The optical density of the cells was measured at 450 nm by ELISA plate reader after 2-4 hours XTT incubation. Cell viability was determined relative to a control having no polymer added thereto.

[1] = XTT cell viability assay, non-cancerous cardiac fibroblasts (CF); assay type: cell-based, rat; settings: rat
Description: Primary non-cancerous rat cardiac fibroblasts (CF);
as §1, §2
“Rat primary cardiac fibroblast CF” represents the lethal concentration in μM as measured against CF cell line, measured as described hereinabove in the cell proliferation XTT assay (column 8 in Table 3);

TRAMP-C2 cell line = assay type: cell-based
Description: Transgenic adenocarcinoma mouse prostate cells (TRAMP-C2);
as §1, §2
“Mouse prostate cancer TRAMP-C2” represents the lethal concentration in μM as measured against TRAMP-C2 cell line, measured as described hereinabove in the cell proliferation XTT assay (column 5 in Table 3);

[2] = 24 hours incubation, XTT, read-out: Cancer LC50 Human small-cell lung carcinoma N-417
[3] = 24 hours incubation, XTT, read-out: Cancer LC50 Human breast cancer MCF-7
[4] = primary non-cancerous cardiac fibroblasts (CF), 24 hours incubation, XTT, non-cancerous cells, read-out: Cancer LC50 Rat primary cardiac fibroblast CF
[5] = 24 hours incubation, XTT, read-out: Cancer LC50 Mouse prostate cancer TRAMP-C2
[6] = Cancer LC50 Rat primary cardiac fibroblast CF

SMILES | HC50 at 3 h (in vitro) [µM] | CC50 (N-417 cell line; [2]) [µM] | CC50 (MCF-7 cell line; [3]) [µM] | CC50 at 24 h [1, 4] [µM] | CC50 (TRAMP-C2 cell line; [5]) [µM] | other results
NCCCC[C@@H]1NC(=O)CCCCCCCCCCCNC(=O)[C@H](CCCCN)NC(=O)[C@H](CCCCN)NC(=O)CCCCCCCCCCCNC(=O)[C@H](CCCCN)NC(=O)[C@H](CCCCN)NC(=O)CCCCCCCCCCCNC(=O)[C@H](CCCCN)NC1=O [Cyclic-(KNC12K)3] (cyclo(K[12Ado]KK[12Ado]KK[12Ado]K)) | > 100 | – | – | – | – | –
NCCCC[C@@H]1NC(=O)CCCCCCCCCCCNC(=O)[C@H](CCCCN)NC(=O)CCCCCCCCCCCNC(=O)[C@H](CCCCN)NC(=O)CCCCCCCCCCCNC(=O)[C@H](CCCCN)NC(=O)[C@H](CCCCN)NC(=O)CCCCCCCCCCCNC(=O)[C@H](CCCCN)NC(=O)CCCCCCCCCCCNC1=O [Cyclic-K(NC12K)5] (cyclo(K[12Ado]K[12Ado]K[12Ado]K[12Ado]K[12Ado]K)) | 3.4 ± 0.3 | – | – | – | – | –
NCCCC[C@@H]1NC(=O)CCCCCCCCCCCNC(=O)[C@H](CCCCN)NC(=O)[C@H](CCCCN)NC(=O)CCCCCCCCCCCNC(=O)[C@H](CCCCN)NC(=O)[C@H](CCCCN)NC(=O)CCCCCCCCCCCNC1=O [Cyclic-NC12K(KNC12K)2] (cyclo([12Ado]KK[12Ado]KK[12Ado]K)) | > 100 | – | – | – | – | –
NCCCC[C@@H]1NC(=O)CCCCCCCCCCCNC(=O)[C@H](CCCCN)NC(=O)[C@H](CCCCN)NC(=O)CCCCCCCCCCCNC1=O [Cyclic-NC12KKNC12K] (HELM PEPTIDE1{[O=C(CCCCCCCCCCCN[*:1])[*:2]].K.[O=C(CCCCCCCCCCCN[*:1])[*:2]].K.K}$PEPTIDE1,PEPTIDE1,1:R1-5:R2$$$V2.0) | – | – | – | – | – | HC50 at 3 h (in vitro; red blood cells): > 100 µM
NCCCC[C@H](NC(=O)CCCCCCCCCCCNC(=O)[C@H](CCCCN)NC(=O)[C@H](CCCCN)NC(=O)CCCCCCCCCCCNC(=O)[C@H](CCCCN)NC(=O)[C@@H](N)CCCCN)C(N)=O [K(KNC12K)2NH2] (HELM PEPTIDE1{K.K.[O=C(CCCCCCCCCCCN[*:1])[*:2]].K.K.[O=C(CCCCCCCCCCCN[*:1])[*:2]].K.[am]}$$$$V2.0) | – | > 16 | > 16 | > 16 | > 16 | –
NCCCC[C@H](NC(=O)CCCCCCCCCCCNC(=O)[C@H](CCCCN)NC(=O)[C@@H](N)CCCCN)C(N)=O [KKNC12KNH2] (HELM PEPTIDE1{K.K.[O=C(CCCCCCCCCCCN[*:1])[*:2]].K.[am]}$$$$V2.0) | – | – | – | – | – | CC50 (N-417 cell line; human, 24 h): > 16 µM; CC50 (MCF-7 cell line; human, 24 h): > 16 µM; CC50 at 24 h [1, 6]: > 16 µM; CC50 (TRAMP-C2 cell line; mouse, 24 h): > 16 µM
NCCCCCCCCCCCC(=O)N[C@@H](CCCCN)C(=O)NCCCCCCCCCCCC(=O)N[C@@H](CCCCN)C(=O)N[C@@H](CCCCN)C(=O)NCCCCCCCCCCCC(=O)N[C@@H](CCCCN)C(N)=O [NC12(KNC12K)2NH2] (H-[12Ado]K[12Ado]KK[12Ado]K-NH2) | – | – | – | – | – | CC50 (N-417 cell line; human, 24 h): > 16 µM; CC50 (MCF-7 cell line; human, 24 h): > 16 µM; CC50 at 24 h [1, 6]: > 16 µM; CC50 (TRAMP-C2 cell line; mouse, 24 h): > 16 µM
NCCCCCCCCCCCC(=O)N[C@@H](CCCCN)C(=O)N[C@@H](CCCCN)C(=O)NCCCCCCCCCCCC(=O)N[C@@H](CCCCN)C(=O)N[C@@H](CCCCN)C(=O)NCCCCCCCCCCCC(=O)N[C@@H](CCCCN)C(N)=O [NC12K(KNC12K)2NH2] (H-[12Ado]KK[12Ado]KK[12Ado]K-NH2) | – | > 16 | > 16 | > 16 | > 16 | –
NCCCCCCCCCCCC(=O)N[C@@H](CCCCN)C(=O)N[C@@H](CCCCN)C(=O)NCCCCCCCCCCCC(=O)N[C@@H](CCCCN)C(N)=O [NC12KKNC12KNH2] (HELM PEPTIDE1{[NCCCCCCCCCCCC(=O)[*:2]].K.K.[O=C(CCCCCCCCCCCN[*:1])[*:2]].K.[am]}$$$$V2.0) | – | > 16 | > 16 | > 16 | > 16 | –
